Patent publication US20260262643A1, “HERBICIDAL BENZOXAZINES” (FMC CORPORATION, priority 2022, published 2026)

Assays:
kochia [1] = experiment: Test A postemergence; format: in vivo, Bassia scoparia; settings: postemergence, 10 days; for Plant response rating, Kochia: visual injury
Method in brief: (§1)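 Seeds in loam–sand blend received a directed preemergence soil spray of compound in non-phytotoxic solvent with surfactant; postemergence plants (2–10 cm, one- to two-leaf stage) were sprayed with the same formulation. After 10 days in greenhouse, injury was rated visually versus untreated controls, 0 (no effect) to 100 (complete control).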

corn [2] = experiment: Test A preemergence; format: in vivo, Zea mays
Method in brief: as §1

goosegrass [3] = experiment: Test A preemergence; format: in vivo, Eleusine indica
Method in brief: as §1

ragweed [4] = experiment: Test A preemergence; format: in vivo, Ambrosia artemisiifolia
Method in brief: as §1

wheat [5] = experiment: Test A postemergence; format: in vivo, Triticum aestivum; settings: postemergence, 10 days; for Plant response rating, Wheat: visual injury
Method in brief: as §1

oat, wild [6] = experiment: Test A postemergence; format: in vivo, Avena fatua; settings: postemergence, 10 days; for Plant response rating, Oat, Wild: visual injury
Method in brief: as §1

blackgrass [7] = experiment: Test A preemergence; format: in vivo, Alopecurus myosuroides
Method in brief: as §1

rice = experiment: Test B flooded paddy test; format: in vivo, Oryza sativa; settings: 250 g ai/ha, Flood, 13 days, 0 to 100 scale (0 no effect, 100 complete control)
Method in brief: (§2)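 Compound is introduced into paddy water covering soil by 3 cm, treating plants that have reached two leaves. Pots are kept flooded at that depth under greenhouse conditions. Assessment at 13 days gives a 0–100 visual control score.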

pigweed, palmer [8] = experiment: Test A postemergence; format: in vivo, Amaranthus palmeri; settings: postemergence, 10 days; for Plant response rating, Pigweed, Palmer: visual injury
Method in brief: as §1

soybean [9] = experiment: Test A postemergence; format: in vivo, Glycine max; settings: postemergence, 10 days; for Plant response rating, Soybean: visual injury
Method in brief: as §1

pigweed, palmer [10] = experiment: Test A preemergence; format: in vivo, Amaranthus palmeri
Method in brief: as §1

ryegrass, Italian [11] = experiment: Test A postemergence; format: in vivo, Lolium multiflorum; settings: postemergence, 10 days; for Plant response rating, Ryegrass, Italian: visual injury
Method in brief: as §1

ryegrass, Italian [12] = experiment: Test A preemergence; format: in vivo, Lolium multiflorum
Method in brief: as §1

barnyardgrass = experiment: Test B flooded paddy test; format: in vivo, Echinochloa crus-galli; settings: 250 g ai/ha, Flood, 13 days, 0 to 100 scale (0 no effect, 100 complete control)
Method in brief: as §2

soybean [13] = experiment: Test A preemergence; format: in vivo, Glycine max
Method in brief: as §1

kochia [14] = experiment: Test A preemergence; format: in vivo, Bassia scoparia
Method in brief: as §1

corn [15] = experiment: Test A postemergence; format: in vivo, Zea mays; settings: postemergence, 10 days; for Plant response rating, Corn: visual injury
Method in brief: as §1

blackgrass [16] = experiment: Test A postemergence; format: in vivo, Alopecurus myosuroides; settings: postemergence, 10 days; for Plant response rating, Blackgrass: visual injury
Method in brief: as §1

wheat [17] = experiment: Test A preemergence; format: in vivo, Triticum aestivum
Method in brief: as §1

horseweed = experiment: Test A postemergence; format: in vivo, Erigeron canadensis; settings: postemergence, 10 days; for Plant response rating, Horseweed: visual injury
Method in brief: as §1

ragweed [18] = experiment: Test A postemergence; format: in vivo, Ambrosia artemisiifolia; settings: postemergence, 10 days; for Plant response rating, Ragweed: visual injury
Method in brief: as §1

sedge, umbrella = experiment: Test B flooded paddy test; format: in vivo, Cyperus difformis; settings: 250 g ai/ha, Flood, 13 days, 0 to 100 scale (0 no effect, 100 complete control)
Method in brief: as §2

foxtail, giant [19] = experiment: Test A postemergence; format: in vivo, Setaria faberi; settings: postemergence, 10 days; for Plant response rating, Foxtail, Giant: visual injury
Method in brief: as §1

goosegrass [20] = experiment: Test A postemergence; format: in vivo, Eleusine indica; settings: postemergence, 10 days; for Plant response rating, Goosegrass: visual injury
Method in brief: as §1

foxtail, giant [21] = experiment: Test A preemergence; format: in vivo, Setaria faberi
Method in brief: as §1

oat, wild [22] = experiment: Test A preemergence; format: in vivo, Avena fatua
Method in brief: as §1

ducksalad = experiment: Test B flooded paddy test; format: in vivo, Heteranthera limosa; settings: 250 g ai/ha, Flood, 13 days, 0 to 100 scale (0 no effect, 100 complete control)
Method in brief: as §2

[23] = 31 g ai/ha, 0 to 100 scale (0 no effect, 100 complete control)
[24] = 125 g ai/ha, 0 to 100 scale (0 no effect, 100 complete control)
[25] = 125 g ai/ha, visual injury after 10 days, 0 to 100 scale, 0 is no effect, 100 is complete control
[26] = 125 g ai/ha, 0 to 100 scale, 0 no effect, 100 complete control
[27] = 500 g ai/ha, 0 to 100 scale (0 no effect, 100 complete control)
[28] = 500 g ai/ha, 0 to 100 scale (0 no effect, 100 complete control), 10 days

Cc1ccc(-n2cnc(Br)n2)cc1C(=O)N1C[C@H](C)Oc2c(Cl)cccc21 [Compound 62]
Kochia plant response rating (kochia [1]; [23]): 80
Plant response rating, Kochia (kochia [1]; [24]): 90
Plant response rating, Corn (corn [2]; 31 g ai/ha, 0 to 100 scale): 0
Plant response rating, Corn (corn [2]; [25]): 0
Plant response rating, Goosegrass (goosegrass [3]; 31 g ai/ha, 0 to 100 scale): 70
Plant response rating, Goosegrass (goosegrass [3]; [25]): 100
Plant response rating, Ragweed (ragweed [4]; 31 g ai/ha, 0 to 100 scale): 0
Plant response rating, Ragweed (ragweed [4]; [25]): 20
Wheat plant response rating (wheat [5]; [23]): 10
Plant response rating, Wheat (wheat [5]; [24]): 10
Oat, Wild plant response rating (oat, wild [6]; [23]): 0
Plant response rating, Oat, Wild (oat, wild [6]; [24]): 20
Plant response rating, Blackgrass (blackgrass [7]; 31 g ai/ha, 0 to 100 scale): 0
Plant response rating, Blackgrass (blackgrass [7]; [25]): 40
Plant response rating, Rice (rice): 0
Pigweed, Palmer plant response rating (pigweed, palmer [8]; [23]): 40
Plant response rating, Pigweed, Palmer (pigweed, palmer [8]; [24]): 50
Soybean plant response rating (soybean [9]; [23]): 100
Plant response rating, Soybean (soybean [9]; [24]): 100
Plant response rating, Pigweed, Palmer (pigweed, palmer [10]; 31 g ai/ha, 0 to 100 scale): 70
Plant response rating, Pigweed, Palmer (pigweed, palmer [10]; [25]): 90
Ryegrass, Italian plant response rating (ryegrass, Italian [11]; [23]): 0
Plant response rating, Ryegrass, Italian (ryegrass, Italian [11]; [24]): 40
Plant response rating, Ryegrass, Italian (ryegrass, Italian [12]; 31 g ai/ha, 0 to 100 scale): 0
Plant response rating, Ryegrass, Italian (ryegrass, Italian [12]; [25]): 70
Plant response rating, Barnyardgrass (barnyardgrass): 0
Plant response rating, Soybean (soybean [13]; 31 g ai/ha, 0 to 100 scale): 0
Plant response rating, Soybean (soybean [13]; [25]): 0
Plant response rating, Kochia (kochia [14]; 31 g ai/ha, 0 to 100 scale): 10
Plant response rating, Kochia (kochia [14]; [25]): 80
Corn plant response rating (corn [15]; [23]): 10
Plant response rating, Corn (corn [15]; [24]): 10
Blackgrass plant response rating (blackgrass [16]; [23]): 40
Plant response rating, Blackgrass (blackgrass [16]; [24]): 50
Plant response rating, Wheat (wheat [17]; 31 g ai/ha, 0 to 100 scale): 0
Plant response rating, Wheat (wheat [17]; [25]): 0
Horseweed plant response rating (horseweed; [23]): 0
Plant response rating, Horseweed (horseweed; [24]): 0
Ragweed plant response rating (ragweed [18]; [23]): 10
Plant response rating, Ragweed (ragweed [18]; [24]): 20
Plant response rating, Sedge, Umbrella (sedge, umbrella): 0
Foxtail, Giant plant response rating (foxtail, giant [19]; [23]): 20
Plant response rating, Foxtail, Giant (foxtail, giant [19]; [24]): 90
Goosegrass plant response rating (goosegrass [20]; [23]): 10
Plant response rating, Goosegrass (goosegrass [20]; [24]): 20
Plant response rating, Foxtail, Giant (foxtail, giant [21]; 31 g ai/ha, 0 to 100 scale): 20
Plant response rating, Foxtail, Giant (foxtail, giant [21]; [25]): 90
Plant response rating, Oat, Wild (oat, wild [22]; 31 g ai/ha, 0 to 100 scale): 0
Plant response rating, Oat, Wild (oat, wild [22]; [25]): 0
Plant response rating, Ducksalad (ducksalad): 0

C[C@H]1CN(C(=O)c2cccc(-n3cnc(Br)n3)c2)c2cccc(Cl)c2O1 [Compound 85]
Kochia plant response rating (kochia [1]; [26]): 60
Plant response rating, Kochia (kochia [1]; [27]): 90
Plant response rating, Corn (corn [2]; [25]): 0
Plant response rating, Corn (corn [2]; [28]): 0
Plant response rating, Goosegrass (goosegrass [3]; [25]): 80
Plant response rating, Goosegrass (goosegrass [3]; [28]): 100
Plant response rating, Ragweed (ragweed [4]; [25]): 0
Plant response rating, Ragweed (ragweed [4]; [28]): 0
Wheat plant response rating (wheat [5]; [26]): 0
Plant response rating, Wheat (wheat [5]; [27]): 10
Oat, Wild plant response rating (oat, wild [6]; [26]): 20
Plant response rating, Oat, Wild (oat, wild [6]; [27]): 30
Plant response rating, Blackgrass (blackgrass [7]; [25]): 0
Plant response rating, Blackgrass (blackgrass [7]; [28]): 30
Plant response rating, Rice (rice): 0
Pigweed, Palmer plant response rating (pigweed, palmer [8]; [26]): 70
Plant response rating, Pigweed, Palmer (pigweed, palmer [8]; [27]): 80
Soybean plant response rating (soybean [9]; [26]): 100
Plant response rating, Soybean (soybean [9]; [27]): 100
Plant response rating, Pigweed, Palmer (pigweed, palmer [10]; [25]): 70
Plant response rating, Pigweed, Palmer (pigweed, palmer [10]; [28]): 60
Ryegrass, Italian plant response rating (ryegrass, Italian [11]; [26]): 10
Plant response rating, Ryegrass, Italian (ryegrass, Italian [11]; [27]): 70
Plant response rating, Ryegrass, Italian (ryegrass, Italian [12]; [25]): 90
Plant response rating, Ryegrass, Italian (ryegrass, Italian [12]; [28]): 90
Plant response rating, Barnyardgrass (barnyardgrass): 0
Plant response rating, Soybean (soybean [13]; [25]): 0
Plant response rating, Soybean (soybean [13]; [28]): 0
Plant response rating, Kochia (kochia [14]; [25]): 20
Plant response rating, Kochia (kochia [14]; [28]): 80
Corn plant response rating (corn [15]; [26]): 10
Plant response rating, Corn (corn [15]; [27]): 10
Blackgrass plant response rating (blackgrass [16]; [26]): 30
Plant response rating, Blackgrass (blackgrass [16]; [27]): 50
Plant response rating, Wheat (wheat [17]; [25]): 0
Plant response rating, Wheat (wheat [17]; [28]): 0
Horseweed plant response rating (horseweed; [26]): 20
Plant response rating, Horseweed (horseweed; [27]): 50
Ragweed plant response rating (ragweed [18]; [26]): 0
Plant response rating, Ragweed (ragweed [18]; [27]): 20
Plant response rating, Sedge, Umbrella (sedge, umbrella): 0
Foxtail, Giant plant response rating (foxtail, giant [19]; [26]): 20
Plant response rating, Foxtail, Giant (foxtail, giant [19]; [27]): 40
Goosegrass plant response rating (goosegrass [20]; [26]): 0
Plant response rating, Goosegrass (goosegrass [20]; [27]): 30
Plant response rating, Foxtail, Giant (foxtail, giant [21]; [25]): 30
Plant response rating, Foxtail, Giant (foxtail, giant [21]; [28]): 90
Plant response rating, Oat, Wild (oat, wild [22]; [25]): 0
Plant response rating, Oat, Wild (oat, wild [22]; [28]): 10
Plant response rating, Ducksalad (ducksalad): 0
